Measurements from patent US8323917B2, “Method of screening for compounds that inhibit the enzymatic activity of GWT1 gene product” (priority 2002, dated 2012).

Tests used:
[1] = target: T1, GWT1 gene product (Gwt1 protein) in membrane fraction (Saccharomyces cerevisiae, UniProt P47026); experiment: acylated GPI detection system (GPI acylation assay, TLC of GlcN-(acyl)PI); assay type: biochemical, S. cerevisiae; settings: UDP-[14C]GlcNAc, TLC/autoradiography, FIGS. 3 and 4
T1 construct: made in house; host or cells: S. cerevisiae Δgwt1 strain carrying the YEp352GAPIIClaIΔSal-GWT1 overexpression plasmid; total membrane fraction
T1 sequence (P47026 whole entry): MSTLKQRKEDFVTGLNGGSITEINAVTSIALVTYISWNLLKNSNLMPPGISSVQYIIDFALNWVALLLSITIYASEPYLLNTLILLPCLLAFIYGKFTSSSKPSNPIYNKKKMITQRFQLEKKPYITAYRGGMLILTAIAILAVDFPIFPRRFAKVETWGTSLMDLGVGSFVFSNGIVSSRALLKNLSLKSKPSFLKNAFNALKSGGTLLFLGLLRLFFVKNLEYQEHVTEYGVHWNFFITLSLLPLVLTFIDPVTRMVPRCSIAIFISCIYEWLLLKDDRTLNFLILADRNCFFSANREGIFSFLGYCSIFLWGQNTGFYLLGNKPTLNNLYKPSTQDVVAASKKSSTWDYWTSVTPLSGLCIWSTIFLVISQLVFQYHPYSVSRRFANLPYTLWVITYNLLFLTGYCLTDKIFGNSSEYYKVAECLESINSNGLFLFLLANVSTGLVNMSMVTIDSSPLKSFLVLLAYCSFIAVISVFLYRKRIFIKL
Description: Wild-type S. cerevisiae strain, the GWT1 gene-deficient strain Δgwt1, and the strain Δgwt1 into which the GWT1 overexpression plasmid was introduced were each cultured in 100 ml of YPD medium shaken at 24° C., and then harvested in the middle logarithmic growth phase (0D600=1˜3). The fungal cells were washed with TM buffer (50 mM Tris-HCl (pH 7.5) and 2 mM MgCl2), and then suspended in 2 ml of TM buffer+protease inhibitor (1 tablet of Complete™, protease inhibitor, (Roche)/25 ml). 1.5 ml of glass beads was added to the suspension. The mixture was vortexed for 30 seconds, and then placed on ice for 30 seconds. These procedures were repeated ten times to disrupt the fungal cells. The cell homogenate was transferred into a new tube, and centrifuged at 1000 g at 4° C. for five minutes to precipitate the glass beads and undisrupted fungal cells. The supernatant was transferred to another tube, and centrifuged at 13 000g at 4° C. for 20 minutes to precipitate the membrane fraction comprising organelles (total membrane fraction). The resulting precipitate was used as the membrane fraction.
The membrane fraction preparation (300 μg protein) was diluted with a buffer consisting of 50 mM Tris-HCl (pH7.5), 2 mM MgCl2, 2 mM MnCl2, 1 mM ATP, 1 mM Coenzyme A, 21 μg/ml tunicamycin, 10 μM nikkomycin Z, and 0.5 mM Dithiothreitol. The solution was adjusted to a total of 140 μl for use as a reaction solution. After incubating the solution at 24° C. for 15 minutes, 15 μCi UDP-[^14C]GlcNAc was added to the tube and then incubated at 24° C. for another one hour. 1 ml of chloroform:methanol (1:2) was added to the solution and stirred to stop the reaction. Then, lipid was extracted from the solution, dried, and desalted by butanol extraction. Acylated GPI (GlcN-(acyl)PI), non-acylated GPI (GlcN-PI), and GPI which was neither acylated nor deacylated (GlcNAc-PI) were separated by thin-layer chromatography (HCl3/CH3OH/1 M NH4OH (10:10:3)). Each spot was detected by autoradiography. […]

GWT1 gene products = settings: reporter system reflecting the activity of the GWT1 gene products; cited from earlier work

Row | SMILES | spot intensity of acylated GPI (GlcN-(acyl)PI) [1] | inhibitory activity IC50 (Table 1 in WO 02/04626) (GWT1 gene products) [µg/mL]
1 | CC(=O)N(C)CCCc1ccc(Cc2nccc3ccccc23)cc1 [Example B73, N-(3-(4-(1-isoquinolylmethyl)phenyl)propyl)-N-methylacetamide] | not observed to decrease | 50
2 | CCCCc1ccc(Cc2nccc3ccccc23)cc1 [Example B2, 1-(4-butylbenzyl)isoquinoline] | dose-dependent decrease | 
3 | CCCCc1ccc(Cc2nccc3ccccc23)c(O)c1 [Example B85, 5-butyl-2-(1-isoquinolylmethyl)phenol] | dose-dependent decrease | 
